These results are taken from patent publication US10183938B2, “Geminal substituted quinuclidine amide compounds as agonists of α-7 nicotonic acetylcholine receptors” (AXOVANT SCIENCES GMBH, priority 2014, dated 2019).

Structures are written as SMILES. Structures can show the parent of a compound that is named as a salt. Where two headings read alike, the source gives them in different places.

The target in assay [1] is human 5-HT3 serotonin receptors (Homo sapiens (Human), UniProt P46098). Nature of the assay: [3H]BRL 43694 competition binding.
Chain of human 5-HT3 serotonin receptors (P46098 24-478): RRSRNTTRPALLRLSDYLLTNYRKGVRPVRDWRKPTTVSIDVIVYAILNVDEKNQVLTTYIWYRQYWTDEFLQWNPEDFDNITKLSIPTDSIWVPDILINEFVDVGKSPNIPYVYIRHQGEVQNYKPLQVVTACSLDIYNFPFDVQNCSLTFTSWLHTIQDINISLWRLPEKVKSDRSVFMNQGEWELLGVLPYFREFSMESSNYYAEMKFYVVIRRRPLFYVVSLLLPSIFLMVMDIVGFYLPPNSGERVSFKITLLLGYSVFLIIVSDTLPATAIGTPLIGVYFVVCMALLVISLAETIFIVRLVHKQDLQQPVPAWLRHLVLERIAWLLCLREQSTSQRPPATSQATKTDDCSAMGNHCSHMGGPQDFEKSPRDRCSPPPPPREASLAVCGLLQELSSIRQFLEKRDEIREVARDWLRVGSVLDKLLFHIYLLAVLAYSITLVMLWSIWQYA
The target of assay [2] is human α7 nAChRs transiently expressed in Xenopus laevis oocytes (Homo sapiens (Human), UniProt P36544). The assay can be described thus: Oocyte electrophysiology screen (TEVC). The assay is classed as cell-based. Conditions: 0.01 mM test compound, peak current relative to 0.2 mM ACh. The procedure, abridged:
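Oocytes expressing human α7 were clamped at −80 mV by TEVC. After a 0.2 mM ACh control pulse, test compound was applied at 0.01 mM for 30 s. Agonist response is peak current as % of the ACh response, in triplicate.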

Where [3] appears, read: CHO cell membranes, [3H]BRL 43694, Cheng Prusoff, read-out: h-5HT3 Ki.

Chain of human α7 nAChRs transiently expressed in Xenopus laevis oocytes (P36544 23-502 limits assumed): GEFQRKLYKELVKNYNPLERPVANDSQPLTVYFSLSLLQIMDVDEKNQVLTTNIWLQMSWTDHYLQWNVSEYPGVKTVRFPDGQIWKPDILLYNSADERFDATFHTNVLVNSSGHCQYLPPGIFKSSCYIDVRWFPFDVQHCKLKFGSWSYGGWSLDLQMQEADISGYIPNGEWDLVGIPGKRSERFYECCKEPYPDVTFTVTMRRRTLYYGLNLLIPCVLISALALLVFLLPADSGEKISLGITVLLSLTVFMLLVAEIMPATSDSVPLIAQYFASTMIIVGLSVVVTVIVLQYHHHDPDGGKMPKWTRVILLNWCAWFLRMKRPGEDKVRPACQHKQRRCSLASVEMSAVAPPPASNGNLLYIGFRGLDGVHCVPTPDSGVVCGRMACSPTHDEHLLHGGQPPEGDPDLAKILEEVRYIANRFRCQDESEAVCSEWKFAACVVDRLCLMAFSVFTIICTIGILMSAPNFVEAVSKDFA

For `CC1(C)[C@H](NC(=O)c2cc3cccc(F)c3s2)C2CCN1CC2` [(R)-4, (R)—N-(2,2-dimethylquinuclidin-3-yl)-7-fluoro-benzo[b]thiophene-2-carboxamide hydrochloride], in assay [1] (setting [3]), the Ki came out at 0.87 µM. In addition, the “% ACh @ 10 μM Oocyte” value in assay [2] is 1060 % ACh.
As to `CC1(C)[C@H](NC(=O)c2cc3cccnc3s2)C2CCN1CC2` [(R)-28, (R)—N-(2,2-dimethylquinuclidin-3-yl)thieno[2,3-b]pyridine-2-carboxamide hydrochloride], the Ki in assay [1] (setting [3]) was greater than 10 µM. Moreover, the “% ACh @ 10 μM Oocyte” value in assay [2] is 321 % ACh.
For `COc1ccc2cc(C(=O)N[C@@H]3C4CCN(CC4)C3(C)C)sc2c1F` [(R)-51, (R)—N-(2,2-dimethylquinuclidin-3-yl)-7-fluoro-6-methoxybenzo[b]thiophene-2-carboxamide hydrochloride], the Ki in assay [1] (setting [3]) was greater than 10 µM. Besides, in assay [2], the “% ACh @ 10 μM Oocyte” value turned out to be 326 % ACh.
For the molecule `O=C(N[C@@H]1C2CCN(CC2)C12CC2)c1ccc2oc(Cl)cc2c1` [(R)-92, (R)-2-chloro-N-(1′-azaspiro[cyclopropane-1,2′-bicyclo[2.2.2]octan]-3′-yl)benzofuran-5-carboxamide hydrochloride], the Ki in assay [1] (setting [3]) was greater than 10 µM. The “% ACh @ 10 μM Oocyte” value in assay [2] is recorded as 532 % ACh.
For the molecule `CC1(C)[C@H](NC(=O)c2cc3cccc(C(F)(F)F)c3s2)C2CCN1CC2` [(R)-7, (R)—N-(2,2-dimethylquinuclidin-3-yl)-7-(trifluoromethyl)benzo[b]thiophene-2-carboxamide hydrochloride], the Ki in assay [1] (setting [3]) is 3.4 µM. Besides, in assay [2], the “% ACh @ 10 μM Oocyte” value was determined as 466 % ACh.
The like results for `CC1(C)[C@H](NC(=O)c2cc3ccoc3cn2)C2CCN1CC2` [(R)-22, (R)—N-(2,2-dimethylquinuclidin-3-yl)furo[2,3-c]pyridine-5-carboxamide hydrochloride] were, in that order, 6.5 µM and 456 % ACh.
On to `Cc1ccc2sc(C(=O)N[C@@H]3C4CCN(CC4)C3(C)C)cc2c1` [(R)-16, (R)—N-(2,2-dimethylquinuclidin-3-yl)-5-methylbenzo[b]thiophene-2-carboxamide hydrochloride], for which, in assay [1] (setting [3]), the Ki was 2.5 µM. The “% ACh @ 10 μM Oocyte” value in assay [2] stood at 74 % ACh.
As to `CC1(C)[C@H](NC(=O)c2cc3ccsc3cn2)C2CCN1CC2` [(R)-43, (R)—N-(2,2-dimethylquinuclidin-3-yl)thieno[2,3-c]pyridine-5-carboxamide hydrochloride], in assay [1] (setting [3]), the Ki stood at 1.5 µM. Also, the “% ACh @ 10 μM Oocyte” value in assay [2] is given as 951 % ACh.
With `COc1cccc2cc(C(=O)N[C@@H]3C4CCN(CC4)C3(C)C)sc12` [(R)-116, (R)—N-(2,2-dimethylquinuclidin-3-yl)-7-methoxybenzo[b]thiophene-2-carboxamide hydrochloride], the Ki in assay [1] (setting [3]) was found to be 0.6 µM. In assay [2], the “% ACh @ 10 μM Oocyte” value stood at 963 % ACh.
On to `O=C(N[C@@H]1C2CCN(CC2)C12CC2)c1ccc2ccoc2c1` [(R)-84, (R)—N-(1′-azaspiro[cyclopropane-1,2′-bicyclo[2.2.2]octan]-3′-yl)benzofuran-6-carboxamide hydrochloride], for which the Ki in assay [1] (setting [3]) amounted to 4.7 µM. For the same molecule, in assay [2], the “% ACh @ 10 μM Oocyte” value was found to be 341 % ACh.
The like results for `Cn1cnc2cc(C(=O)N[C@@H]3C4CCN(CC4)C34CC4)ccc21` [(R)-95, (R)-1-methyl-N-(1′-azaspiro[cyclopropane-1,2′-bicyclo[2.2.2]octan]-3′-yl)-1H-benzo[d]imidazole-5-carboxamide hydrochloride] were, in that order, greater than 10 µM and 0 % ACh.
In the case of `CC1(C)[C@H](NC(=O)c2cc3cc(Cl)ccc3s2)C2CCN1CC2` [(R)-13, (R)-5-chloro-N-(2,2-dimethylquinuclidin-3-yl)benzo[b]thiophene-2-carboxamide hydrochloride], the Ki in assay [1] (setting [3]) came out at 2.1 µM. In assay [2], the “% ACh @ 10 μM Oocyte” value stood at 132 % ACh.
`O=C(NC1C2CCN(CC2)C12CC2)c1ccc2occc2c1` (single isomer, unassigned; enantiomer1) [59a, N-(1′-azaspiro[cyclopropane-1,2′-bicyclo[2.2.2]octan]-3′-yl)benzofuran-5-carboxamide-enantiomer1] showed a Ki in assay [1] of 6.5 µM. Moreover, in assay [2], the “% ACh @ 10 μM Oocyte” value is recorded as 823 % ACh.
In the case of `Cc1ccc2cc(C(=O)N[C@@H]3C4CCN(CC4)C34CC4)sc2c1F` [(R)-106, (R)-7-fluoro-6-methyl-N-(1′-azaspiro[cyclopropane-1,2′-bicyclo[2.2.2]octan]-3′-yl)benzo[b]thiophene-2-carboxamide hydrochloride], the Ki in assay [1] (setting [3]) is greater than 10 µM. In assay [2], the “% ACh @ 10 μM Oocyte” value was found to be 572 % ACh.
For `CC1(C)[C@H](NC(=O)c2ccc3occc3c2)C2CCN1CC2` [(R)-6, (R)—N-(2,2-dimethylquinuclidin-3-yl)benzofuran-5-carboxamide hydrochloride], the Ki in assay [1] (setting [3]) is greater than 10 µM. The “% ACh @ 10 μM Oocyte” value in assay [2] was found to be 374 % ACh.
With `O=C(NC1C2CCN(CC2)C12CC2)c1cc2cc(F)ccc2s1` (single isomer, unassigned; enantiomer1) [64a, 5-fluoro-N-(1′-azaspiro[cyclopropane-1,2′-bicyclo[2.2.2]octan]-3′-yl)benzo[b]thiophene-2-carboxamide-enantiomer1], the affinity in assay [1] corresponds to a Ki of 0.42 µM. Further, in assay [2], the “% ACh @ 10 μM Oocyte” value is listed as 511 % ACh.
With `Cc1csc2cc(C(=O)N[C@@H]3C4CCN(CC4)C34CC4)ccc12` [(R)-78, (R)-3-methyl-N-(1′-azaspiro[cyclopropane-1,2′-bicyclo[2.2.2]octan]-3′-yl)benzo[b]thiophene-6-carboxamide hydrochloride], the Ki in assay [1] (setting [3]) was determined as 2.1 µM. Further, the “% ACh @ 10 μM Oocyte” value in assay [2] is 31 % ACh.
Consider `CC1(C)[C@H](NC(=O)c2cc3ccc(C#N)cc3s2)C2CCN1CC2` [(R)-9, (R)-6-cyano-N-(2,2-dimethylquinuclidin-3-yl)benzo[b]thiophene-2-carboxamide hydrochloride], for which the Ki in assay [1] (setting [3]) was greater than 10 µM. In assay [2], the “% ACh @ 10 μM Oocyte” value was 2 % ACh.
As to `O=C(N[C@@H]1C2CCN(CC2)C12CC2)c1cc2ccc(Cl)c(F)c2s1` [(R)-151, (R)-6-chloro-7-fluoro-N-(1′-azaspiro[cyclopropane-1,2′-bicyclo[2.2.2]octan]-3′-yl)benzo[b]thiophene-2-carboxamide hydrochloride], the Ki in assay [1] (setting [3]) was greater than 10 µM. For the same molecule, the “% ACh @ 10 μM Oocyte” value in assay [2] came out at 409 % ACh.
Turning to `CC1(C)[C@H](NC(=O)c2cc3ccc(F)c(Cl)c3s2)C2CCN1CC2` [(R)-114, (R)-7-chloro-N-(2,2-dimethylquinuclidin-3-yl)-6-fluorobenzo[b]thiophene-2-carboxamide hydrochloride], the Ki in assay [1] (setting [3]) is 0.62 µM. Besides, in assay [2], the “% ACh @ 10 μM Oocyte” value is listed as 703 % ACh.
For the molecule `Cc1ccc2cc(C(=O)N[C@@H]3C4CCN(CC4)C3(C)C)sc2c1F` [(R)-53, (R)—N-(2,2-dimethylquinuclidin-3-yl)-7-fluoro-6-methylbenzo[b]thiophene-2-carboxamide hydrochloride], in assay [1] (setting [3]), the Ki came to 5.9 µM. Besides, the “% ACh @ 10 μM Oocyte” value in assay [2] was determined as 576 % ACh.
Consider `CC1(C)[C@H](NC(=O)c2cc3c(cn2)OCCO3)C2CCN1CC2` [(R)-23, (R)—N-(2,2-dimethylquinuclidin-3-yl)-2,3-dihydro-[1,4]dioxino[2,3-c]pyridine-7-carboxamide hydrochloride], for which the Ki in assay [1] (setting [3]) was greater than 10 µM. In assay [2], the “% ACh @ 10 μM Oocyte” value was 82 % ACh.
Turning to `CC1(C)[C@H](NC(=O)c2cc3cccc(Cl)c3o2)C2CCN1CC2.Cl` [(R)-217, (R)-7-chloro-N-(2,2-dimethylquinuclidin-3-yl)benzofuran-2-carboxamide hydrochloride], the Ki in assay [1] (setting [3]) was determined as 1.1 µM. The “% ACh @ 10 μM Oocyte” value in assay [2] was determined as 473 % ACh.
The like results for `O=C(N[C@@H]1C2CCN(CC2)C12CC2)c1cc2ccc(F)c(Cl)c2s1` [(R)-158, (R)-7-chloro-6-fluoro-N-(1′-azaspiro[cyclopropane-1,2′-bicyclo[2.2.2]octan]-3′-yl)benzo[b]thiophene-2-carboxamide hydrochloride] were, in that order, 0.37 µM and 180 % ACh.
The like results for `O=C(N[C@@H]1C2CCN(CC2)C12CC2)c1cc2ccoc2cn1` [(R)-75, (R)—N-(1′-azaspiro[cyclopropane-1,2′-bicyclo[2.2.2]octan]-3′-yl)furo[2,3-c]pyridine-5-carboxamide hydrochloride] were, in that order, 3.3 µM and 594 % ACh.
Turning to `Cc1nc2ccc(C(=O)N[C@@H]3C4CCN(CC4)C34CC4)cc2o1` [(R)-86, (R)-2-methyl-N-(1′-azaspiro[cyclopropane-1,2′-bicyclo[2.2.2]octan]-3′-yl)benzo[d]oxazole-6-carboxamide], in assay [1] (setting [3]), the Ki was greater than 10 µM. In addition, the “% ACh @ 10 μM Oocyte” value in assay [2] is given as 67 % ACh.
Take `Cc1cc2cc(C(=O)N[C@@H]3C4CCN(CC4)C34CC4)ccc2o1` [(R)-91, (R)-2-methyl-N-(1′-azaspiro[cyclopropane-1,2′-bicyclo[2.2.2]octan]-3′-yl)benzofuran-5-carboxamide hydrochloride]: the Ki in assay [1] (setting [3]) was greater than 10 µM. Also, the “% ACh @ 10 μM Oocyte” value in assay [2] turned out to be 653 % ACh.
On to `O=C(NC1C2CCN(CC2)C12CC2)c1cc2cccc(C(F)(F)F)c2s1` (single isomer, unassigned; enantiomer1) [60a, N-(1′-azaspiro[cyclopropane-1,2′-bicyclo[2.2.2]octan]-3′-yl)-7-(trifluoromethyl)benzo[b]thiophene-2-carboxamide-enantiomer1], for which the Ki in assay [1] (setting [3]) stood at 1.01 µM. The “% ACh @ 10 μM Oocyte” value in assay [2] is given as 501 % ACh.
The like results for `CC1(C)[C@H](NC(=O)c2cc3ccc(F)cc3s2)C2CCN1CC2` [(R)-8, (R)—N-(2,2-dimethylquinuclidin-3-yl)-6-fluorobenzo[b]thiophene-2-carboxamide hydrochloride] were, in that order, 6.5 µM and 480 % ACh.

The Ki is a dissociation constant, usually derived from enzyme kinetics or from competition with a known ligand.
